Laboratory results published in patent US6987114B1, “Antiviral pyrimidinedione derivatives and process for the preparation thereof” (Samjin Pharmaceutical Co., Ltd, priority 1999, dated 2006).
≈ marks a conversion by molar mass, not a printed value. Read-outs that look alike come from different tables or passages of the source.

Key:
HIV = test: microbe, parasite or virus in culture; format: cell-based
Procedure, shortened: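 MT-4 cells (2.5×10^5 cells/ml) infected with 1000 CCID50 HIV, added at once to compound dilutions, incubated 4 or 5 days at 37° C. Protection from virus-induced cytopathic effect read by MTT; cytotoxicity from MTT viability of mock-infected cells in parallel.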

mock-infected MT-4 cells = test: Cytotoxicity based on viability of mock-infected host cells (MTT method); format: cell-based; details: mock-infected MT-4 cells, MTT method, 4 or 5 days at 37° C.
Procedure, shortened: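 Mock-infected MT-4 cells at 2.5×10^5 cells/ml were exposed to various concentrations of test compound, run in parallel with HIV-infected (1000 CCID50) cultures. After 4 or 5 days at 37° C., host-cell viability was read by MTT.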

[1] = Human immunodeficiency virus 1, MT4, HIV-infected MT-4 cells, MTT method, 4 or 5 days at 37° C., read-out: ED50 (the source's name)
[2] = Human immunodeficiency virus 1, MT4, read-out: ED50

Row | SMILES | melting point [°C] | EC50 (HIV; [1]) [µg/mL] | CD50 (mock-infected MT-4 cells) [µg/mL] | EC50 (HIV; [2]) [µg/mL]
1 | Cc1cc(C)cc(Sc2c(C(C)C)c(=O)[nH]c(=O)n2Cc2cc(F)ccc2F)c1 [Example 68, 1-(2,5-Difluorobenzyl)-5-isopropyl-6-(3,5-dimethylphenyl)thio-2,4-pyrimidinedione] | 192 to 194 | 0.005 (≈ 0.012 µM) | 4.15 | 
2 | Cc1cc(C)cc(Sc2c(C(C)C)c(=O)[nH]c(=O)n2Cc2nc3ccccc3o2)c1 [Example 146, 1-(Benzoxazol-2-ylmethyl)-5-isopropyl-6-(3,5-dimethylphenyl)thio-2,4-pyrimidinedione] | 107 to 109 |  | >100.00 | 1.02 (≈ 2.42 µM)
3 | Cc1cc(C)cc(C(=O)c2c(C(C)C)c(=O)[nH]c(=O)n2Cc2ccccc2)c1 [Example 24, 1-Benzyl-5-isopropyl-6-(3,5-dimethylbenzoyl)-2,4-pyrimidinedione] | 188 to 190 | 0.0009 (≈ 0.00239 µM) | 5.20 | 
4 | Cc1cc(C)cc(Oc2c(C(C)C)c(=O)[nH]c(=O)n2Cc2ccc(OC(F)(F)F)cc2)c1 [Example 34, 1-(4-Trifluoromethoxybenzyl)-5-isopropyl-6-(3,5-dimethylphenoxy)-2,4-pyrimidinedione] | 173 to 175 | 0.045 (≈ 0.1 µM) | 8.06 | 
5 | Cc1cc(C)cc(C(=O)c2c(C(C)C)c(=O)[nH]c(=O)n2Cc2cc(Br)cc(Br)c2)c1 [Example 90, 1-(3,5-Dibromobenzyl)-5-isopropyl-6-(3,5-dimethylbenzoyl)-2,4-pyrimidinedione] | 223 to 225 |  | 8.90 | 0.12 (≈ 0.225 µM)
6 | Cc1cc(C)cc(C(=O)c2c(C(C)C)c(=O)[nH]c(=O)n2Cc2cc(C(F)(F)F)cc(C(F)(F)F)c2)c1 [Example 66, 1-[3,5-Bis(Trifluoromethyl)benzyl]-5-isopropyl-6-(3,5-dimethyl-benzoyl)-2,4-pyrimidinedione] | 178 to 180 | 1.75 (≈ 3.41 µM) | 8.14 | 
7 | CC(=O)Cn1c(Oc2cc(C)cc(C)c2)c(C(C)C)c(=O)[nH]c1=O [Example 158, 1-(Acetonyl)-5-isopropyl-6-(3,5-dimethylphenoxy)-2,4-pyrimidinedione] | 181 to 183 |  | >100.00 | 0.0043 (≈ 0.013 µM)
8 | COc1cc(Cn2c(Oc3cc(C)cc(C)c3)c(C(C)C)c(=O)[nH]c2=O)cc(OC)c1 [Example 58, 1-(3,5-Dimethoxybenzyl)-5-isopropyl-6-(3,5-dimethylphenoxy)-2,4-pyrimidinedione] | 162 to 164 | 0.51 (≈ 1.2 µM) | >100.00 | 
9 | Cc1cc(C)cc(Sc2c(C(C)C)c(=O)[nH]c(=O)n2Cc2cccnc2)c1 [Example 116, 1-(Pyridin-3-ylmethyl)-5-isopropyl-6-(3,5-dimethylphenyl)thio-2,4-pyrimidinedione] | 159 to 161 |  | 10.09 | 0.003 (≈ 0.00786 µM)
10 | Cc1cc(C)cc(Oc2c(C(C)C)c(=O)[nH]c(=O)n2Cc2cc(Br)cc(Br)c2)c1 [Example 88, 1-(3,5-Dibromobenzyl)-5-isopropyl-6-(3,5-dimethylphenoxy)-2,4-pyrimidinedione] | 244 to 246 |  | >100.00 | 0.42 (≈ 0.804 µM)
11 | CCc1c(C(=O)c2cc(C)cc(C)c2)n(Cc2c3ccccc3cc3ccccc23)c(=O)[nH]c1=O [Example 101, 1-(Anthracen-9-ylmethyl)-5-ethyl-6-(3,5-dimethyl-benzoyl)-2,4-pyrimidinedione] | 270 to 272 |  | 0.94 | > 0.94
12 | CCc1c(Oc2cc(C)cc(C)c2)n(Cc2cccc(C#N)c2)c(=O)[nH]c1=O [Example 45, 1-(3-Cyanobenzyl)-5-ethyl-6-(3,5-dimethylphenoxy)-2,4-pyrimidinedione] | 213 to 214 |  | >100.00 | 0.061 (≈ 0.162 µM)
13 | CCc1c(C(=O)c2cc(C)cc(C)c2)n(Cc2cc(C(F)(F)F)cc(C(F)(F)F)c2)c(=O)[nH]c1=O [Example 65, 1-[3,5-Bis(Trifluoromethyl)benzyl]-5-ethyl-6-(3,5-dimethyl-benzoyl)-2,4-pyrimidinedione] | 241 to 243 | > 100 | >100.00 | 
14 | Cc1cc(C)cc(Oc2c(C(C)C)c(=O)[nH]c(=O)n2Cc2cc(Cl)cc(Cl)c2)c1 [Example 82, 1-(3,5-Dichlorobenzyl)-5-isopropyl-6-(3,5-dimethylphenoxy)-2,4-pyrimidinedione] | 234 to 236 |  | 36.15 | 0.173 (≈ 0.399 µM)
15 | CCc1c(C(=O)c2cc(C)cc(C)c2)n(Cc2ccccc2)c(=O)[nH]c1=O [Example 23, 1-Benzyl-5-ethyl-6-(3,5-dimethylbenzoyl)-2,4-pyrimidine-dione] | 202 to 204 | 0.0016 (≈ 0.00441 µM) | 8.00 | 
16 | Cc1cc(C)cc(Sc2c(C(C)C)c(=O)[nH]c(=O)n2Cc2cc(C(F)(F)F)cc(C(F)(F)F)c2)c1 [Example 62, 1-[3,5-Bis(trifluoromethyl)benzyl]-5-isopropyl-6-(3,5-dimethylphenyl)thio-2,4-pyrimidinedione] | 183 to 185 | > 100 | >100.00 | 
17 | CCc1c(C(=O)c2cc(C)cc(C)c2)n(Cc2cc(Br)cc(Br)c2)c(=O)[nH]c1=O [Example 89, 1-(3,5-Dibromobenzyl)-5-ethyl-6-(3,5-dimethylbenzoyl)-2,4-pyrimidinedione] | 234 to 236 |  | 8.75 | 0.09 (≈ 0.173 µM)
18 | Cc1cc(C)cc(Cn2c(C(=O)c3cc(C)cc(C)c3)c(C(C)C)c(=O)[nH]c2=O)c1 [Example 54, 1-(3,5-Dimethylbenzyl)-5-isopropyl-6-(3,5-dimethylbenzoyl)-2,4-pyrimidinedione] | 228 to 230 |  | 7.10 | 0.014 (≈ 0.0346 µM)

Further lines, with some results ahead:

Row | melting point [°C] | EC50 (HIV; [1]) [µg/mL] | SMILES | CD50 (mock-infected MT-4 cells) [µg/mL] | EC50 (HIV; [2]) [µg/mL]
19 | 246 to 248 | 0.49 (≈ 0.991 µM) | Cc1cc(C)cc(Oc2c(C(C)C)c(=O)[nH]c(=O)n2Cc2ccc3c(c2)C(=O)c2ccccc2C3=O)c1 [Example 106, 1-(Anthraquinon-2-ylmethyl)-5-isopropyl-6-(3,5-dimethylphenoxy)-2,4-pyrimidinedione] | 9.49 | 
20 | 120 to 122 | > 100 | Cc1cc(C)cc(Sc2c(C(C)C)c(=O)[nH]c(=O)n2Cc2ccc3c(c2)C(=O)c2ccccc2C3=O)c1 [Example 104, 1-(Anthraquinon-2-ylmethyl)-5-isopropyl-6-(3,5-dimethyl-phenyl)thio-2,4-pyrimidinedione] | >100.00 | 
21 | 203 to 205 | 0.013 (≈ 0.0312 µM) | Cc1cc(C)cc(Sc2c(C(C)C)c(=O)[nH]c(=O)n2Cc2cc(F)cc(F)c2)c1 [Example 74, 1-(3,5-Difluorobenzyl)-5-isopropyl-6-(3,5-dimethylphenyl)thio-2,4-pyrimidinedione] | 10.50 | 
22 | 196 to 198 | 0.015 (≈ 0.0377 µM) | CCc1c(C(=O)c2cc(C)cc(C)c2)n(Cc2cccc(Cl)n2)c(=O)[nH]c1=O [Example 125, 1-(2-Chloropyridin-6-ylmethyl)-5-ethyl-6-(3,5-dimethyl-benzoyl)-2,4-pyrimidinedione] | 9.02 | 
23 | 214 to 216 | 0.014 (≈ 0.035 µM) | Cc1cc(C)cc(Oc2c(C(C)C)c(=O)[nH]c(=O)n2Cc2cc(F)ccc2F)c1 [Example 70, 1-(2,5-Difluorobenzyl)-5-isopropyl-6-(3,5-dimethylphenoxy)-2,4-pyrimidinedione] | >100.00 | 
24 | 206 to 208 | 0.011 (≈ 0.0267 µM) | Cc1cc(C)cc(C(=O)c2c(C(C)C)c(=O)[nH]c(=O)n2Cc2cccc(Cl)n2)c1 [Example 126, 1-(2-Chloropyridin-6-ylmethyl)-5-isopropyl-6-(3,5-dimethylbenzoyl)-2,4-pyrimidinedione] | 9.85 | 
25 | 195 to 197 | > 85.2 | CCc1c(Sc2cc(C)cc(C)c2)n(Cc2ccc3c(c2)C(=O)c2ccccc2C3=O)c(=O)[nH]c1=O [Example 103, 1-(Anthraquinon-2-ylmethyl)-5-ethyl-6-(3,5-dimethyl-phenyl)thio-2,4-pyrimidinedione] | 85.19 | 
26 | 220 to 223 | 0.029 (≈ 0.0794 µM) | Cc1cc(C)cc(Oc2c(C(C)C)c(=O)[nH]c(=O)n2Cc2ccccn2)c1 [Example 112, 1-(Pyridin-2-ylmethyl)-5-isopropyl-6-(3,5-dimethylphenoxy)-2,4-pyrimidinedione] | >100.00 | 
27 | 152 to 154 | 0.0097 (≈ 0.0227 µM) | Cc1cc(C)cc(C(=O)c2c(C(C)C)c(=O)[nH]c(=O)n2Cc2ccc3ccccc3n2)c1 [Example 136, 1-(Quinolin-2-ylmethyl)-5-isopropyl-6-(3,5-dimethyl-benzoyl)-2,4-pyrimidinedione] | 8.70 | 
28 | 205 to 207 | 0.003 (≈ 0.00727 µM) | Cc1cc(C)cc(C(=O)c2c(C(C)C)c(=O)[nH]c(=O)n2Cc2cc(F)ccc2F)c1 [Example 72, 1-(2,5-Difluorobenzyl)-5-isopropyl-6-(3,5-dimethylbenzoyl)-2,4-pyrimidinedione] | 5.26 | 
29 | 157 to 159 | 0.074 (≈ 0.179 µM) | COC(=O)c1ccoc1Cn1c(Oc2cc(C)cc(C)c2)c(C(C)C)c(=O)[nH]c1=O [Example 154, 1-(3-Methoxycarbonyl-2-furanylmethyl)-5-isopropyl-6-(3,5-dimethylphenoxy)-2,4-pyrimidinedione] | 10.11 | 
